Experimental data published in patent US11155557B2, “Pyrazolopyrimidine compounds and methods of use thereof” (Genentech, Inc., priority 2016, dated 2021).

Tests used:
[1] = biological target: isolated recombinant JAK1 kinase domain (Homo sapiens (Human), UniProt P23458); assay: JAK1 enzyme assay (Caliper LabChip, Ki); format: biochemical
Experimental: The activity of the isolated recombinant JAK1 and JAK2 kinase domain was measured by monitoring phosphorylation of a peptide derived from JAK3 ([…] fluorescently labeled on the N-terminus with 5-carboxyfluorescein) using the Caliper LabChip R technology (Caliper Life Sciences, Hopkinton, Mass.).

[2] = system: JAK1-dependent STAT6 phosphorylation in BEAS-2B human bronchial epithelial cells; assay: JAK1 pathway assay: IL-13 stimulated STAT6 phosphorylation in BEAS-2B cells; format: cell-based; conditions: Homo sapiens, BEAS-2B, BEAS-2B cells, IL-13 stimulation; read-out: IL-13 p-STAT6 BEAS-2B IC50
Procedure, shortened: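 BEAS-2B bronchial epithelial cells plated one day before, run in complete growth medium. Phospho-STAT6 in lysates measured by MesoScale Discovery; EC50 reported.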

[3] = biological target: isolated recombinant JAK2 kinase domain (Homo sapiens (Human), UniProt O60674); assay: JAK2 enzyme assay (Caliper LabChip, Ki); conditions: read-out: JAK2 Ki
Chain of isolated recombinant JAK2 kinase domain (O60674 849-1124): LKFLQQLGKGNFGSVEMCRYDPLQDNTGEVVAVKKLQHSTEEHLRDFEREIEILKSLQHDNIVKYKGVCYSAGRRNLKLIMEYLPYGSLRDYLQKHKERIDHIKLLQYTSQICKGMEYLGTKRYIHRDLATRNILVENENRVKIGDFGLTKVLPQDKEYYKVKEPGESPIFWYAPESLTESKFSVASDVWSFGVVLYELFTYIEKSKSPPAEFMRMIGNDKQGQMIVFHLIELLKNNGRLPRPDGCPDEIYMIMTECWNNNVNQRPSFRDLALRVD

Chain of isolated recombinant JAK1 kinase domain (P23458 875-1153): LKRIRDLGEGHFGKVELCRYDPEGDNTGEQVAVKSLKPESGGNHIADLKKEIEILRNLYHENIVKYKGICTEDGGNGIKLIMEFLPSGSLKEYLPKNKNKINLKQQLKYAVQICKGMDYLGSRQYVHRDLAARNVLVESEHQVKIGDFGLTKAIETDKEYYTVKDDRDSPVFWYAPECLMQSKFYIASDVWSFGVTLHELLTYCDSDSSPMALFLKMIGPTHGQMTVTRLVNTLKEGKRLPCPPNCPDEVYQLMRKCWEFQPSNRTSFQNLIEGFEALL

Compound | Ki [1] | Ki [3] | IC50 [2]
O=C(Nc1cn(CC(=O)N2CCC(CN3CCOCC3)CC2)nc1-c1cc2c(cc1OC(F)F)NCCO2)c1cnn2cccnc12 [Example 44, N-[3-[6-(difluoromethoxy)-3,4-dihydro-2H-1,4-benzoxazin-7-yl]-1-[2-[4-(morpholinomethyl)-1-piperidyl]-2-oxo-ethyl]pyrazol-4-yl]pyrazolo[1,5-a]pyrimidine-3-carboxamide] | 0.34 nM | 0.51 nM | 45 nM
C[C@H]1CNc2cc(OC(F)F)c(-c3nn(CC(=O)N4CCC(CN5CCOCC5)CC4)cc3NC(=O)c3cnn4cccnc34)cc2S1 [Example 45, N-[1-[2-[4-(morpholinomethyl)-1-piperidyl]-2-oxo-ethyl]-3-[(2S)-6-(difluoromethoxy)-2-methyl-3,4-dihydro-2H-1,4-benzothiazin-7-yl]pyrazol-4-yl]pyrazolo[1,5-a]pyrimidine-3-carboxamide] | 0.22 nM | 0.24 nM | 29 nM
C[C@@H]1CNc2cc(OC(F)F)c(-c3nn(CC(=O)N4CCC(CN5CCOCC5)CC4)cc3NC(=O)c3cnn4cccnc34)cc2S1 [Example 46, N-[1-[2-[4-(morpholinomethyl)-1-piperidyl]-2-oxo-ethyl]-3-[(2R)-6-(difluoromethoxy)-2-methyl-3,4-dihydro-2H-1,4-benzothiazin-7-yl]pyrazol-4-yl]pyrazolo[1,5-a]pyrimidine-3-carboxamide] | 0.25 nM | 0.31 nM | 31 nM
O=C(Nc1cn(CC(=O)N2CCC(N3CCOCC3)CC2)nc1-c1cc2c(cc1OC(F)F)NCCO2)c1cnn2cccnc12 [Example 47, N-[3-[6-(difluoromethoxy)-3,4-dihydro-2H-1,4-benzoxazin-7-yl]-1-[2-(4-morpholino-1-piperidyl)-2-oxo-ethyl]pyrazol-4-yl]pyrazolo[1,5-a]pyrimidine-3-carboxamide] | 0.31 nM | 0.45 nM | 106 nM
O=C(Nc1cn(CC(=O)N2CC=CCC2)nc1-c1cc2c(cc1OC(F)F)NCCS2)c1cnn2cccnc12 [Example 50, N-[3-[6-(difluoromethoxy)-3,4-dihydro-2H-1,4-benzothiazin-7-yl]-1-[2-(3,6-dihydro-2H-pyridin-1-yl)-2-oxo-ethyl]pyrazol-4-yl]pyrazolo[1,5-a]pyrimidine-3-carboxamide] | 0.11 nM | 0.1 nM | 10 nM
O=C(Nc1cn(CC(=O)N2CCCCC2)nc1-c1cc2c(cc1OC(F)F)NCCS2)c1cnn2cccnc12 [Example 51, N-[3-[6-(difluoromethoxy)-3,4-dihydro-2H-1,4-benzothiazin-7-yl]-1-[2-oxo-2-(1-piperidyl)ethyl]pyrazol-4-yl]pyrazolo[1,5-a]pyrimidine-3-carboxamide] | 0.13 nM | 0.1 nM | 11 nM
CCN1CCN(C(=O)Cn2cc(NC(=O)c3cnn4cccnc34)c(-c3cc4cn[nH]c4cc3OC(F)F)n2)CC1 [Example 53, N-[3-[6-(difluoromethoxy)-1H-indazol-5-yl]-1-[2-(4-ethylpiperazin-1-yl)-2-oxo-ethyl]pyrazol-4-yl]pyrazolo[1,5-a]pyrimidine-3-carboxamide] | 0.25 nM | 0.39 nM | 88 nM
COc1cc2ccsc2cc1-c1nn(CC(=O)N2CCC(N3CCOCC3)CC2)cc1NC(=O)c1cnn2cccnc12 [Example 54, N-[3-(5-methoxybenzothiophen-6-yl)-1-[2-(4-morpholino-1-piperidyl)-2-oxo-ethyl]pyrazol-4-yl]pyrazolo[1,5-a]pyrimidine-3-carboxamide] | 0.92 nM | 2.1 nM | 46 nM

Now from value to molecule, other results behind:

Ki [1] | Ki [3] | Compound | IC50 [2]
0.28 nM | 0.11 nM | COc1cc2ccsc2cc1-c1n[nH]cc1NC(=O)c1cnn2cccnc12 [Example 35, N-[3-(5-methoxybenzothiophen-6-yl)-1H-pyrazol-4-yl]pyrazolo[1,5-a]pyrimidine-3-carboxamide] | 3 nM
0.65 nM | 0.49 nM | CCOC(=O)c1cc2cc(-c3n[nH]cc3NC(=O)c3cnn4cccnc34)c(OC)cc2s1 [Example 36, ethyl 6-methoxy-5-[4-(pyrazolo[1,5-a]pyrimidine-3-carbonylamino)-1H-pyrazol-3-yl]benzothiophene-2-carboxylate] | 32 nM
0.07 nM | 0.05 nM | CC1CNc2cc(OC(F)F)c(-c3n[nH]cc3NC(=O)c3cnn4cccnc34)cc2S1 (stereo not drawn) [Example 37, N-[3-[6-(difluoromethoxy)-2-methyl-3,4-dihydro-2H-1,4-benzothiazin-7-yl]-1H-pyrazol-4-yl]pyrazolo[1,5-a]pyrimidine-3-carboxamide] | 5 nM
0.06 nM | 0.05 nM | CC1Sc2cc(-c3n[nH]cc3NC(=O)c3cnn4cccnc34)c(OC(F)F)cc2NC1=O (stereo not drawn) [Example 39, N-[3-[6-(difluoromethoxy)-2-methyl-3-oxo-4H-1,4-benzothiazin-7-yl]-1H-pyrazol-4-yl]pyrazolo[1,5-a]pyrimidine-3-carboxamide] | 71 nM
0.09 nM | 0.06 nM | O=C1COc2cc(-c3n[nH]cc3NC(=O)c3cnn4cccnc34)c(OC(F)F)cc2N1 [Example 40, N-[3-[6-(difluoromethoxy)-3-oxo-4H-1,4-benzoxazin-7-yl]-1H-pyrazol-4-yl]pyrazolo[1,5-a]pyrimidine-3-carboxamide] | 67 nM
0.44 nM | 0.25 nM | C[C@H]1COc2cc(-c3n[nH]cc3NC(=O)c3cnn4cccnc34)c(OC(F)F)cc2N1 [Example 42, N-[3-[(3S)-6-(difluoromethoxy)-3-methyl-3,4-dihydro-2H-1,4-benzoxazin-7-yl]-1H-pyrazol-4-yl]pyrazolo[1,5-a]pyrimidine-3-carboxamide] | 34 nM
0.25 nM | 0.17 nM | C[C@@H]1COc2cc(-c3n[nH]cc3NC(=O)c3cnn4cccnc34)c(OC(F)F)cc2N1 [Example 43, N-[3-[(3R)-6-(difluoromethoxy)-3-methyl-3,4-dihydro-2H-1,4-benzoxazin-7-yl]-1H-pyrazol-4-yl]pyrazolo[1,5-a]pyrimidine-3-carboxamide] | 12 nM
0.3 nM | 0.51 nM | O=C(Nc1cn(CC(=O)N2CCC(O)CC2)nc1-c1cc2c(cc1OC(F)F)NCCO2)c1cnn2cccnc12 [Example 48, N-[3-[6-(difluoromethoxy)-3,4-dihydro-2H-1,4-benzoxazin-7-yl]-1-[2-(4-hydroxy-1-piperidyl)-2-oxo-ethyl]pyrazol-4-yl]pyrazolo[1,5-a]pyrimidine-3-carboxamide] | > 1000 nM
0.23 nM | 0.29 nM | O=C(Nc1cn(CC(=O)N2CC=CCC2)nc1-c1cc2c(cc1OC(F)F)NCCO2)c1cnn2cccnc12 [Example 49, N-[3-[6-(difluoromethoxy)-3,4-dihydro-2H-1,4-benzoxazin-7-yl]-1-[2-(3,6-dihydro-2H-pyridin-1-yl)-2-oxo-ethyl]pyrazol-4-yl]pyrazolo[1,5-a]pyrimidine-3-carboxamide] | 19 nM
0.16 nM | 0.14 nM | O=C(Nc1cn(CC(=O)N2CCC(O)CC2)nc1-c1cc2c(cc1OC(F)F)NCCS2)c1cnn2cccnc12 [Example 52, N-[3-[6-(difluoromethoxy)-3,4-dihydro-2H-1,4-benzothiazin-7-yl]-1-[2-(4-hydroxy-1-piperidyl)-2-oxo-ethyl]pyrazol-4-yl]pyrazolo[1,5-a]pyrimidine-3-carboxamide] | 285 nM
